Patent US6372774B1, “Derivatives of N-phenylpyrazoles” (Rhone-Poulenc Agriculture Ltd., priority 1985, dated 2002)
Blank lines part the entries; values can stand above or below the compound they belong to.

Columns and labels:
[1] = tested on: Megoura viciae (Vetch Aphid); experiment: Test 3 b): spray of infested tic bean plants, Megoura viciae; type: in vivo; details: for Megoura score/12 50 ppm: Tables 1 and 3, sum of scores 0-3 of 4 replicates; for mortality at 50 ppm: Megoura viciae, read-out: mortality of Megoura viciae; for score from 4 replicates, Megoura viciae: Test 3 method (b), application of 50 ppm, score 0-3 per replicate, maximum 12
Procedure: (§1) One or more dilutions of the compounds to be tested were made in 50% aqueous acetone.
b) Megoura viciae (Vetch Aphid)
Potted tic bean plants previously infected with mixed stages of Megoura were sprayed to run-off using a laboratory turntable sprayer. Treated plants were held in a greenhouse for 2 days and were assessed for aphid mortality using a scoring system, judging the response in comparison with plants treated with 50% aqueous acetone alone, as controls.

[2] = tested on: Phaedon cochleariae (Mustard Beetle); experiment: Test 3 a): leaf disc spray test, Phaedon cochleariae larvae; type: in vivo; details: Phaedon cochleariae, foliar; for pest or weed control at 10 ppm: read-out: Phaedon % m 10 ppm; for mortality at 5 ppm: read-out: mortality of larvae of Phaedon cochleariae
Source text: as §1
(§2) a) Test species: Plutella xylostella (Diamond-back Moth) and Phaedon cochleariae (Mustard Beetle)
(§3) Turnip leaf discs were set in agar in petri-dishes and infected with 10 larvae (2nd instar Plutella or 3rd instar Phaedon). Four replicate dishes were assigned to each treatment and were sprayed under a Potter Tower with the appropriate test dilution. Four or five days after treatment the dishes were removed from the constant temperature (25° C.) room in which they had been held and the mean percentage mortalities of larvae were determined.

[3] = tested on: Plutella xylostella (Diamond-back Moth); experiment: whole plant or invertebrate; type: in vivo; details: foliar; for mortality at 500 ppm: read-out: mortality of larvae of Plutella xylostella
Source text: as §1, §2, §3

- melting point: 116 to 118 °C
Compound: N#Cc1nn(-c2c(Cl)cc(C(F)(F)F)cc2Cl)c(N)c1SC(F)(F)C(F)Cl (centres unmarked)

- melting point: 147 to 150 °C
Compound: N#Cc1nn(-c2c(Cl)cc(C(F)(F)F)cc2Cl)c(Br)c1[N+](=O)[O-]

- melting point: 186 to 187 °C
Compound: N#Cc1nn(-c2c(Cl)cc(C(F)(F)F)cc2Cl)c(NC(=O)C(Cl)Cl)c1C#N

- melting point: 188 to 189 °C
Compound: CCC(=O)Nc1c(C#N)c(C#N)nn1-c1c(Cl)cc(C(F)(F)F)cc1Cl

- melting point: 165 to 166 °C
Compound: CNc1c(C#N)c(C#N)nn1-c1c(Cl)cc(C(F)(F)F)cc1Cl

- melting point: 245 to 246 °C
Compound: CCNc1c(C#N)c(C#N)nn1-c1c(Cl)cc(C(F)(F)F)cc1Cl

- melting point: 154 to 161 °C
Compound: CN(C)c1c([S+]([O-])C(F)(F)F)c(C#N)nn1-c1c(Cl)cc(C(F)(F)F)cc1Cl (centres unmarked)

- melting point: 147 to 148 °C
Compound: N#Cc1nn(-c2c(Cl)cc(C(F)(F)F)cc2Cl)c(Br)c1[S+]([O-])C(F)(F)F (centres unmarked)

- melting point: 77 to 79 °C
Compound: CCCOC=Nc1c(C#N)c(C)nn1-c1c(Cl)cc(C(F)(F)F)cc1Cl [Compound 119, 4-Cyano-1-(2,6-dichloro-4-trifluoromethylphenyl)-3-methyl-5-propoxymethyleneaminopyrazole]

- melting point: 160 to 162 °C
Compound: CCOC=Nc1c(C#N)c(C(F)(F)F)nn1-c1c(Cl)cc(C(F)(F)F)cc1Cl [Compound 135, 4-Cyano-1-(2,6-dichloro-4-trifluoromethylphenyl)-5-ethoxymethyleneamino-3-trifluoromethylpyrazole]

- melting point: 139 to 141 °C
Compound: N#Cc1c(CF)nn(-c2c(Cl)cc(C(F)(F)F)cc2Cl)c1N [Compound 142, 5-Amino-4-cyano-1-(2,6-dichloro-4-trifluoromethylphenyl)-3-fluoromethylpyrazole]

- melting point: 231 to 232 °C
Compound: N#Cc1nn(-c2c(Cl)cc(OC(F)(F)F)cc2Cl)c(N)c1C#N [Compound 159, 5-Amino-1-(2,6-dichloro-4-trifluoromethoxyphenyl)-3,4-dicyanopyrazole]

- melting point: 115 to 118 °C
Compound: CCOC(=O)c1c(C)nn(-c2c(Cl)cc(C(F)(F)F)cc2Cl)c1N [Compound 162, 5-Amino-1-(2,6-dichloro-4-trifluoromethylphenyl)-3-methyl-4-ethoxycarbonylpyrazole]

- melting point: 180 to 181 °C
Compound: Cc1nn(-c2c(Cl)cc(OC(F)(F)F)cc2Cl)c(N)c1S(C)(=O)=O [Compound 163, 5-Amino-1-(2,6-dichloro-4-trifluoromethoxyphenyl)-4-methanesulphonyl-3-methylpyrazole]

- melting point: 50 to 53 °C
Compound: CCOC(C)=Nc1c(C#N)c(C)nn1-c1c(Cl)cc(C(F)(F)F)cc1Cl [Compound 168, 4-Cyano-1-(2,6-dichloro-4-trifluoromethylphenyl)-5-(1-ethoxyethylideneamino)-3-methylpyrazole]

- melting point: 202 to 204 °C
Compound: Cc1nn(-c2c(Cl)cc(C(F)(F)F)cc2Cl)c(N2C(=O)CCC2=O)c1C#N [Compound 169, 4-Cyano-1-(2,6-dichloro-4-trifluoromethylphenyl)-3-methyl-5-succinimidopyrazole]

- melting point: 194 to 195 °C
Compound: CC(=O)Nc1c(S(C)(=O)=O)c(C(F)(F)F)nn1-c1c(Cl)cc(C(F)(F)F)cc1Cl [Compound 170, 5-Acetamido-1-(2,6-dichloro-4-trifluoromethylphenyl)-4-methanesulphonyl-3-trifluoromethylpyrazole]

- melting point: 88 to 90 °C
Compound: CCOC(=O)N(C)c1c(C#N)c(C(F)(F)F)nn1-c1c(Cl)cc(C(F)(F)F)cc1Cl [Compound 175, 4-Cyano-1-(2,6-dichloro-4-trifluoromethylphenyl)-5-(N-methyl-N-ethoxycarbonylamino)-3-trifluoromethylpyrazole]

- melting point: 194 to 195 °C
Compound: CC(=O)Nc1c([N+](=O)[O-])c(C(F)(F)F)nn1-c1c(Cl)cc(C(F)(F)F)cc1Cl [Compound 192, 5-Acetamido-1-(2,6-dichloro-4-trifluoromethylphenyl)-4-nitro-3-trifluoromethylpyrazole]

- melting point: 120 to 122 °C
Compound: N#Cc1c(C(F)(F)F)nn(-c2c(Cl)cc(C(F)(F)F)cc2Cl)c1SC(F)(F)F [Compound 208, 4-Cyano-1-(2,6-dichloro-4-trifluoromethylphenyl)-3-trifluoromethyl-5-trifluoromethylthiopyrazole]

- melting point: 177 to 179 °C
Compound: N#Cc1c(C(F)(F)F)nn(-c2c(Cl)cc(C(F)(F)F)cc2Cl)c1C(=O)O [Compound 209, 5-Carboxy-4-cyano-1-(2,6-dichloro-4-trifluoromethylphenyl)-3-trifluoromethylpyrazole]

Second part, the compound before the results:

Compound: N#Cc1nn(-c2c(Cl)c(F)c(C(F)(F)F)c(F)c2Cl)c(N)c1C#N
- melting point: 245 to 247 °C

Compound: COC=Nc1c(C#N)c(C)nn1-c1c(Cl)cc(C(F)(F)F)cc1Cl [Compound 118, 4-Cyano-1-(2,6-dichloro-4-trifluoromethylphenyl)-3-methyl-5-methoxymethyleneaminopyrazole]
- Megoura score/12 50 ppm [1]: 10
- pest or weed control at 10 ppm [2]: 45%
- pest or weed control at 500 ppm ([3]; read-out: Plutella % m 500 ppm): 73%

Compound: N#Cc1nn(-c2c(F)c(F)c(C(F)(F)F)c(F)c2F)c(N)c1C#N [Compound 126, 5-Amino-3,4-dicyano-1-(2,3,5,6-tetrafluoro-4-trifluoromethylphenyl)pyrazole]
- melting point: 262 to 263 °C

Compound: N#Cc1c(C(F)(F)C(F)(F)F)nn(-c2c(Cl)cc(C(F)(F)F)cc2Cl)c1N [Compound 127, 5-Amino-4-cyano-1-(2,6-dichloro-4-trifluoromethylphenyl)-3-pentafluoroethylpyrazole]
- Megoura score/12 50 ppm [1]: 10
- pest or weed control at 10 ppm [2]: 100%
- mortality at 100 ppm ([3]; read-out: Plutella % mortality at 100 ppm): 100%

Compound: N#Cc1c(C(F)F)nn(-c2c(Cl)cc(C(F)(F)F)cc2Cl)c1N [Compound 129, 5-Amino-1-(2,6-dichloro-4-trifluoromethylphenyl)-4-cyano-3-difluoromethylpyrazole]
- mortality at 50 ppm [1]: 100%
- score from 4 replicates, Megoura viciae [1]: 12
- pest or weed control at 10 ppm [2]: 100%
- mortality at 500 ppm [3]: 100%

Compound: N#Cc1c(C(F)(F)F)nn(-c2c(Cl)cc(OC(F)(F)F)cc2Cl)c1N [Compound 144, 5-Amino-4-cyano-1-(2,6-dichloro-4-trifluoromethoxyphenyl)-3-trifluoromethylpyrazole]
- mortality at 50 ppm [1]: 100%
- score from 4 replicates, Megoura viciae [1]: 12
- mortality at 5 ppm [2]: 100%
- mortality at 500 ppm [3]: 100%

Compound: N#Cc1cn(-c2c(Cl)cc(C(F)(F)F)cc2Cl)nc1C(F)(F)F [Compound 150, 4-Cyano-1-(2,6-dichloro-4-trifluoromethylphenyl)-3-trifluoromethylpyrazole]
- Megoura score/12 50 ppm [1]: 10
- pest or weed control at 10 ppm [2]: 100%
- mortality at 500 ppm [3]: 100%

Compound: N#Cc1c(C(F)(F)F)nn(-c2c(Cl)cc(C(F)(F)F)cc2Cl)c1I [Compound 151, 4-Cyano-1-(2,6-dichloro-4-trifluoromethylphenyl)-5-iodo-3-trifluoromethylpyrazole]
- Megoura score/12 50 ppm [1]: 11
- pest or weed control at 10 ppm [2]: 100%
- mortality at 500 ppm [3]: 100%

Compound: N#Cc1nn(-c2c(F)c(F)c(C(F)(F)F)c(F)c2Cl)c(N)c1C#N [Compound 157, 5-Amino-1-(2-chloro-3,5,6-trifluoro-4-trifluoromethylphenyl)-3,4-dicyanopyrazole]
- melting point: 242 to 243 °C

Compound: N#Cc1c(C(F)(F)F)nn(-c2c(Cl)c(F)c(C(F)(F)F)c(F)c2Cl)c1N [Compound 167, 5-Amino-4-cyano-1-(2,6-dichloro-3,5-difluoro-4-trifluoromethylphenyl)-3-trifluoromethylpyrazole]
- melting point: 176 to 177 °C

Compound: N#Cc1nn(-c2c(Cl)cc([N+](=O)[O-])cc2Cl)c(N)c1C#N [Compound 172, 5-Amino-1-(2,6-dichloro-4-nitrophenyl)-3,4-dicyanopyrazole]
- melting point: 289 to 290 °C

Compound: C[Si](C)(C)c1c([N+](=O)[O-])c(C(F)(F)F)nn1-c1c(Cl)cc(C(F)(F)F)cc1Cl [Compound 210, 1-(2,6-Dichloro-4-trifluoromethylphenyl)-4-nitro-3-trifluoromethyl-5-trimethylsilylpyrazole]
- mortality at 50 ppm [1]: 100%
- score from 4 replicates, Megoura viciae [1]: 12
- mortality at 5 ppm [2]: 100%
- mortality at 500 ppm [3]: 100%

Compound: CS(=O)(=O)c1c(C#N)nn(-c2c(Cl)cc(C(F)(F)F)cc2Cl)c1N [Compound 214, 5-Amino-3-cyano-1-(2,6-dichloro-4-trifluoromethylphenyl)-4-methanesulphonylpyrazole]
- mortality at 50 ppm [1]: 100%
- score from 4 replicates, Megoura viciae [1]: 12
- mortality at 5 ppm [2]: 100%
- mortality at 500 ppm [3]: 100%

Compound: N#Cc1c(C(F)(F)F)nn(-c2c(Cl)cc([S+]([O-])C(F)(F)F)cc2Cl)c1N (centres unmarked) [Compound 219, 5-Amino-4-cyano-1-(2,6-dichloro-4-trifluoromethylsulphinylphenyl)-3-trifluoromethylpyrazole]
- mortality at 50 ppm [1]: 100%
- score from 4 replicates, Megoura viciae [1]: 12
- mortality at 5 ppm [2]: 100%
- mortality at 500 ppm [3]: 100%

Compound: CCSc1c(C(F)(F)F)nn(-c2c(Cl)cc(C(F)(F)F)cc2Cl)c1N [Compound 228, 5-Amino-1-(2,6-dichloro-4-trifluoromethylphenyl)-4-ethylthio-3-trifluoromethylpyrazole]
- mortality at 50 ppm [1]: 100%
- score from 4 replicates, Megoura viciae [1]: 12
- mortality at 5 ppm [2]: 100%
- mortality at 500 ppm [3]: 100%
